Laboratory results taken from patent publication US20230109010A1, “PESTICIDE COMPOSITIONS WITH SUPRAMOLECULAR STRUCTURES FOR AGRICULTURAL USE” (BPS JUST ENERGY TECHNOLOGY, LLC, priority 2020, published 2023).

How the values were obtained:
palmer amaranth [1] = experiment: Field trial in corn at V3, broadcast treatment on 2-4 inch weeds, % weed control; type: in vivo, Amaranthus palmeri
Source text: (§1) The herbicides tested were glufosinate, glyphosate, and mesotrione. Each herbicide was combined at the specified rate with either deionized water or SymMAX™ supramolecular host water mixture commercially available from Shotwell Hydrogenics at 15 gallons per acre (GPA). Specified rates for glufosinate were 22 ounces per acre, 11 ounces per acre, and 5.5 ounces per acre. Specified rates for glyphosate were 22 ounces per acre, 11 ounces per acre, and 5.5 ounces per acre. Specified rates for mesotrione were 3 ounces per acre, 2 ounces per acre, and 1 ounce per acre.
(§2) This example was conducted as a 4 replicate, RCBD (randomized control block design) in Quitman, GA. An untreated control was used as a standard that provided no weed control and no phytotoxicity. All treatments were compared to the untreated control. Counted dead weeds and living weeds were used to determine % weed control. The untreated control was also used to determine % crop phytotoxicity for the crop. Typical indications of phytotoxicity include chlorosis, stunting, epinasty, and/or leaf burn.
(§3) The trial ran for 14 days with weekly data assessments taken on % crop phytotoxicity and % weed control of four key species: palmer amaranth (Amaranthus palmeri), ivyleaf morning glory (Ipomoea hederacea), fall panicum (Panicum dichotomiflorum) and large crabgrass (Digitaria sanguinalis The test field was over seeded with weed seed obtained from the University of Georgia prior to corn planting. Treatments were applied as a broadcast treatment when corn had reached physiological growth stage V3 and weeds were in the 2-4″ size range. Treatments were applied at various rates ranging from about 1 ounce per acre to about 22 ounces per acre. Tables 9-10 show the % weed control when the weeds are treated with glufosinate. Tables 11-12 show the % weed control when the weeds are treated with glyphosphate. Tables 13-14 show the % weed control when the weeds are treated with mesotrione.

ivyleaf morning glory = experiment: as above; type: in vivo, Ipomoea hederacea
Source text: as §1, §2, §3

fall panicum [2] = experiment: as above; type: in vivo, Panicum dichotomiflorum
Source text: as §1, §2, §3

large crabgrass [3] = experiment: as above; type: in vivo, Digitaria sanguinalis
Source text: as §1, §2, §3

palmer amaranth [4] = experiment: Field trial in corn, herbicide applied 3 days after planting, % weed control; type: in vivo, Amaranthus palmeri
Experimental: (§4) The herbicides tested were acetochlor and s-metolachlor. Each herbicide was combined at the specified rate with either deionized water or SymMAX™ supramolecular host chemistry that is commercially available from Shotwell Hydrogenics at 15 gallons per acre (GPA). Specified rates for acetochlor were 0.5 parts per acre, 1 part per acre, and 2 parts per acre. […]
as §2
(§5) The trial ran for 28 days with weekly data assessments taken on % crop phytotoxicity and % weed control of three key species: palmer amaranth (Amaranthus palmeri), fall panicum (Panicum dichotomiflorum) and large crabgrass (Digitaria sanguinalis). The test field was over seeded with weed seed obtained from the University of Georgia prior to corn planting. Treatments were applied 3 days after planting as a broadcast application at various rates ranging from about 0.5 parts per acre to about 2 parts per acre. Tables 1-4 show the % weed control when the weeds are treated with acetachlor. Tables 4-8 show the % weed control when the weeds are treated with s-metolachlor.

fall panicum [5] = experiment: as above; type: in vivo, Panicum dichotomiflorum
Experimental: as §4, §2, §5

large crabgrass [6] = experiment: as above; type: in vivo, Digitaria sanguinalis
Experimental: as §4, §2, §5

[7] = 7 days, glufosinate 5.5 ounces/acre
[8] = 7 days, glufosinate 11 ounces/acre
[9] = 7 days, glufosinate 22 ounces/acre
[10] = 14 days, glufosinate 5.5 ounces/acre
[11] = 14 days, glufosinate 11 ounces/acre
[12] = 14 days, glufosinate 22 ounces/acre
[13] = 7 days, acetochlor 0.5 part/acre
[14] = 7 days, acetochlor 2 parts/acre
[15] = 14 days, acetochlor 0.5 part/acre
[16] = 14 days, acetochlor 1 part/acre
[17] = 14 days, acetochlor 2 parts/acre
[18] = 21 days, acetochlor 0.5 part/acre
[19] = 21 days, acetochlor 1 part/acre
[20] = 21 days, acetochlor 2 parts/acre
[21] = 28 days, acetochlor 0.5 part/acre
[22] = 28 days, acetochlor 1 part/acre
[23] = 28 days, acetochlor 2 parts/acre

## CP(=O)(O)CCC(N)C(=O)O (stereo not drawn) [Glufosinate, glufosinate]
Palmer amaranth [1]; [7]
  % WEED CONTROL FOR PALMER AMARANTH: 51.5%
Palmer amaranth [1]; [8]
  % WEED CONTROL FOR PALMER AMARANTH: 77.9%
Palmer amaranth [1]; [9]
  % WEED CONTROL FOR PALMER AMARANTH: 82.6%
Palmer amaranth [1]; [10]
  % WEED CONTROL FOR PALMER AMARANTH: 29.0%
Palmer amaranth [1]; [11]
  % WEED CONTROL FOR PALMER AMARANTH: 69.3%
Palmer amaranth [1]; [12]
  % WEED CONTROL FOR PALMER AMARANTH: 76.1%
Ivyleaf morning glory; [7]
  % WEED CONTROL FOR IVYLEAF MORNINGLORY: 16.5%
Ivyleaf morning glory; [8]
  % WEED CONTROL FOR IVYLEAF MORNINGLORY: 52.3%
Ivyleaf morning glory; [9]
  % WEED CONTROL FOR IVYLEAF MORNINGLORY: 70.1%
Ivyleaf morning glory; [10]
  % WEED CONTROL FOR IVYLEAF MORNINGLORY: 5.1%
Ivyleaf morning glory; [11]
  % WEED CONTROL FOR IVYLEAF MORNINGLORY: 41.2%
Ivyleaf morning glory; [12]
  % WEED CONTROL FOR IVYLEAF MORNINGLORY: 64.0%
Fall panicum [2]; [7]
  % WEED CONTROL FOR FALL PANICUM: 100.0%
Fall panicum [2]; [8]
  % WEED CONTROL FOR FALL PANICUM: 99.5%
Fall panicum [2]; [9]
  % WEED CONTROL FOR FALL PANICUM: 100.0%
Fall panicum [2]; [10]
  % WEED CONTROL FOR FALL PANICUM: 83.3%
Fall panicum [2]; [11]
  % WEED CONTROL FOR FALL PANICUM: 92.7%
Fall panicum [2]; [12]
  % WEED CONTROL FOR FALL PANICUM: 95.5%
Large crabgrass [3]; [7]
  % WEED CONTROL FOR LARGE CRABGRASS: 100.0%
Large crabgrass [3]; [8]
  % WEED CONTROL FOR LARGE CRABGRASS: 100.0%
Large crabgrass [3]; [9]
  % WEED CONTROL FOR LARGE CRABGRASS: 100.0%
Large crabgrass [3]; [10]
  % WEED CONTROL FOR LARGE CRABGRASS: 91.8%
Large crabgrass [3]; [11]
  % WEED CONTROL FOR LARGE CRABGRASS: 99.5%
Large crabgrass [3]; [12]
  % WEED CONTROL FOR LARGE CRABGRASS: 100.0%

## CCOCN(C(=O)CCl)c1c(C)cccc1CC [Acetochlor, acetochlor]
Palmer amaranth [4]; [13]
  % WEED CONTROL FOR PALMER AMARANTH: 87.0%
Palmer amaranth [4]; 7 days, acetochlor 1 part/acre
  % WEED CONTROL FOR PALMER AMARANTH: 88.5%
Palmer amaranth [4]; [14]
  % WEED CONTROL FOR PALMER AMARANTH: 93.3%
Palmer amaranth [4]; [15]
  % WEED CONTROL FOR PALMER AMARANTH: 82.3%
Palmer amaranth [4]; [16]
  % WEED CONTROL FOR PALMER AMARANTH: 87.0%
Palmer amaranth [4]; [17]
  % WEED CONTROL FOR PALMER AMARANTH: 97.7%
Palmer amaranth [4]; [18]
  % WEED CONTROL FOR PALMER AMARANTH: 61.7%
Palmer amaranth [4]; [19]
  % WEED CONTROL FOR PALMER AMARANTH: 81.0%
Palmer amaranth [4]; [20]
  % WEED CONTROL FOR PALMER AMARANTH: 90.0%
Palmer amaranth [4]; [21]
  % WEED CONTROL FOR PALMER AMARANTH: 44.5%
Palmer amaranth [4]; [22]
  % WEED CONTROL FOR PALMER AMARANTH: 67.4%
Palmer amaranth [4]; [23]
  % WEED CONTROL FOR PALMER AMARANTH: 99.7%
Fall panicum [5]; [13]
  % WEED CONTROL FOR FALL PANICUM: 65.5%
Fall panicum [5]; 7 days, acetochlor 1 part/acre
  % WEED CONTROL FOR FALL PANICUM: 69.3%
Fall panicum [5]; [14]
  % WEED CONTROL FOR FALL PANICUM: 87.3%
Fall panicum [5]; [15]
  % WEED CONTROL FOR FALL PANICUM: 49.3%
Fall panicum [5]; [16]
  % WEED CONTROL FOR FALL PANICUM: 53.0%
Fall panicum [5]; [17]
  % WEED CONTROL FOR FALL PANICUM: 78.0%
Fall panicum [5]; [18]
  % WEED CONTROL FOR FALL PANICUM: 37.6%
Fall panicum [5]; [19]
  % WEED CONTROL FOR FALL PANICUM: 40.9%
Fall panicum [5]; [20]
  % WEED CONTROL FOR FALL PANICUM: 81.3%
Fall panicum [5]; [21]
  % WEED CONTROL FOR FALL PANICUM: 60.0%
Fall panicum [5]; [22]
  % WEED CONTROL FOR FALL PANICUM: 57.3%
Fall panicum [5]; [23]
  % WEED CONTROL FOR FALL PANICUM: 88.0%
Large crabgrass [6]; [13]
  % WEED CONTROL FOR LARGE CRABGRASS: 69.5%
Large crabgrass [6]; 7 days, acetochlor 1 part/acre
  % WEED CONTROL FOR LARGE CRABGRASS: 74.5%
Large crabgrass [6]; [14]
  % WEED CONTROL FOR LARGE CRABGRASS: 87.0%
Large crabgrass [6]; [15]
  % WEED CONTROL FOR LARGE CRABGRASS: 45.8%
Large crabgrass [6]; [16]
  % WEED CONTROL FOR LARGE CRABGRASS: 49.0%
Large crabgrass [6]; [17]
  % WEED CONTROL FOR LARGE CRABGRASS: 74.5%
Large crabgrass [6]; [18]
  % WEED CONTROL FOR LARGE CRABGRASS: 45.3%
Large crabgrass [6]; [19]
  % WEED CONTROL FOR LARGE CRABGRASS: 43.0%
Large crabgrass [6]; [20]
  % WEED CONTROL FOR LARGE CRABGRASS: 73.3%
Large crabgrass [6]; [21]
  % WEED CONTROL FOR LARGE CRABGRASS: 47.8%
Large crabgrass [6]; [22]
  % WEED CONTROL FOR LARGE CRABGRASS: 48.0%
Large crabgrass [6]; [23]
  % WEED CONTROL FOR LARGE CRABGRASS: 92.1%
